This is an account of results in ChEMBL document CHEMBL3616398, “Recent advances on the synthesis of hepatitis C virus NS5B RNA-dependent RNA-polymerase inhibitors” (Eur J Med Chem, 2015).

Assay [1] deals with Hepatitis C virus. Put plainly: Antiviral activity against HCV genotype 1b replicon system. Type of assay: functional, organism-based, Hepacivirus hominis.
The nature of assay [2]: Inhibition of HCV genotype 1b NS5B RNA dependent RNA polymerase assessed as inorganic pyrophosphate generation by luminometry. On the set-up: species or system Hepatitis C virus subtype 1b.
Assay [3] relates to Hepatitis C virus. Kind of assay: Antiviral activity against HCV genotype 1b infected in human Ava.5 cells after 3 days assessed as protection from virus-induced cytotoxicity by MTT assay. Type of assay: functional, organism-based, Hepacivirus hominis. Particulars: Ava5, 72 h. Background: Tetrazolium dyes change colour on reduction, which living cells bring about.

A word on the IC50: it is the midpoint of a concentration-inhibition curve. The compound `Cc1nc2c(s1)CCCn1c-2c(C2CCCCC2)c2ccc(C(=O)O)cc21` showed an IC50 with Hepatitis C virus [1] of 8.3 µM.

For orientation: EC50 means the concentration needed to bring the measured effect to its halfway point. For the compound `O=C(NCCCc1ccccc1)c1nc2ccccc2c(=O)n1O`, the IC50 in assay [2] was determined as 8.77 µM. Besides, the EC50 in the assay on Hepatitis C virus [3] is 17.5 µM.
